Data taken from patent US9879235B2, “Wheat plants having increased resistance to imidazolinone herbicides” (University of Saskatchewan, priority 2001, dated 2018).

Assays:
[1] = system: susceptible hexaploid check / susceptible wheat plants; experiment: Tolerance test, susceptible hexaploid check; assay type: in vivo, T. aestivum
Description: In all the following discussion, the application rate of the imidazolinone herbicide imazamox that was used in the inheritance studies was 20 grams per hectare.
(§1) The breeding history of the lines tested was previously described (Example 2). […] The doubled haploid derived line P00.45, composed of EM2 in a hexaploid background, was tolerant to 20 g/ha imazamox as a parental check in allelism studies described in Example 3; all plants of the susceptible hexaploid check were killed at that rate.

[2] = system: 00DIMI#17 (EM2 in durum background); experiment: Tolerance of EM2 durum recovery 00DIMI#17; assay type: in vivo, T. turgidum ssp durum
Description: (§2) T. aestivum was used as the bridging species to transfer the EM2 gene from T. monococcum to T. turgidum. In each generation, plants were treated with at least a 20 g/h rate of imazamox prior to selecting plants as parents. An intermediate T. aestivum conversion with the pedigree “Crocus*2/EM2//CDC Tea1/3/2*AC Superb” tolerant to imazamox was crossed by the durum line AC Avonlea. The resultant F1 plants were selfed to produce an F2 population, from which 52/390 plants were identified as resistant (no injury from herbicide application). Some of these were used as females and crossed by AC Avonlea. The resultant BC1F1 plants were again crossed by AC Avonlea. For the subsequent two generations, AC Avonlea was used as the female. The resultant line was designated 00DIMI#17 and had the pedigree: AC Avonlea*2/3/Crocus*2/EM2//CDC Tea1/3/2*AC Superb//3*AC Avonlea. This line was selfed to the F2, and F2 plants treated with 40 g/h of imazamox. Resistant F2 plants were advanced to the F4 generation.
as §1

[3] = system: line derived from the cross of 15A and 11A; experiment: Seedling injury rating, three-gene line; assay type: in vivo, wheat
Description: (§3) Four genotypes were tested for tolerance to two different rates of imazamox. Genotypes included an FS4 only line, BW755; Tea1 15A, previously described as having two independent loci for tolerance to Imi-herbicides; a double-haploid derived line of EM2+FS4, and a line derived from the cross of 15A and 11A, through conventional bulk selection of the most tolerant plants over successive generations at increasing rates of imazamox. Rates of imazamox included 200 and 600 grams per hectare. Seedling injury of the 18 to 25 plants per treatment per genotype was rated on a per plant basis using five categories ranging from death to no injury.

BW755 (FS4 only line) = experiment: Seedling injury rating, one-gene line; assay type: in vivo, wheat; conditions: 200 and 600 grams per hectare
Description: as §3

[4] = system: EMS-treated Triticum monococcum accession TM23; experiment: Selection of tolerant plants after EMS mutagenesis; assay type: in vivo; conditions: 40 g/ha of imazamox, approximately 2.4 million plants treated
Description: (§4) Approximately 15,000 seeds of the Triticum monococcum spring habit accession “TM23” was treated with EMS. The method used was: (1) presoak seed in water for four hours, (2) treat with 0.3% EMS for 16 hours, (3) rinse in water for 8 hours, (4) air-dry for four hours, and (5) plant the seed. Some of the harvested seed was further increased without selection for tolerance to imidazolinone herbicides. The harvested seed was planted and treated with 40 g/ha of imazamox. A total of 120 kg of seed was planted, resulting in approximately 2.4 million plants treated, assuming a kernel weight of 35 mg and 70% seedling emergence. The generation of seed screened ranged from M2 to M5, with over 72% of seed at least M3. Five plants were identified as tolerant, designated EM1 through EM5, and transplanted to a greenhouse for seed production. EM2 was increased under imidazolinone herbicide selection prior to initial field testing (Example 4).

[5] = system: Einkorn check (non-herbicide tolerant); experiment: Field evaluation of herbicide injury, Einkorn check; assay type: in vivo, Triticum monococcum
Description: (§5) The EM2 line tolerant to imazamox (Example 1) was evaluated at a single field location for various agronomic characteristics that could be affected by herbicide injury. The 1998 data are means of two replications. Yield data from 1999 and 2000 are means of four replications. The other data from 1999 are means of two replications.
(§6) The EM2 line was evaluated for overall crop injury at three rates of imazamox, three times during the growing season.

[6] = system: backcross-derived plants in populations P00.35 and P00.45; experiment: Segregation of backcross-derived plants P00.35 and P00.45; assay type: in vivo, T. aestivum; conditions: 20 g/h of imazamox; single heterozygous tolerance gene
Description: (§7) EMIMI is the designation of the T. monococcum EM2 source parent. Crocus is the designation of the T. aestivum ssp aestivum parent used. 605 florets of crocus were pollinated with EMIMI pollen, resulting in 84 F1 seed. 38,409 florets of the F1 plants were pollinated using Crocus pollen, resulting in 2 embryos which were embryo-rescued. The resultant BC1F1 plants were selfed to BC1F2 and treated with 20 g/ha of imazamox. […] Resistant plants were crossed by the bread wheat variety Tea1, representing the 3rd dose of bread wheat. Plants of the resultant line, with a pedigree of Crocus*2/EMIMI//CDC Tea1/3/ were crossed with either AC Elsa or AC Superb and coded respectively, 98PH8 (Elsa cross) and 98PH9 (Superb cross), 98PH8 was crossed an additional six times with AC Elsa and 98PH8 was crossed an additional six times with AC Superb. Two populations were coded as follows: • P00.35=98PH8/6*Elsa=Crocus*2/EM2//CDC Tea1/3/7*AC Elsa • P00.45=98PH9/6*Superb=Crocus*2/EM2//CDC Tea1/3/7*AC Superb. Segregation of the backcross-derived plants in both populations fit an expected 1:1 tolerant:susceptible single gene model when treated with 20 g/h of imazamox. […] Doubled haploids were produced from each population using the maize pollination method. Seven resistant DH lines were obtained from P00.35 and 78 resistant DH lines were obtained from P00.45.

[7] = system: EM2 line in Einkorn background; experiment: Field evaluation of herbicide injury, EM2 line; assay type: in vivo, Triticum monococcum; conditions: for overall crop injury: three rates of imazamox
Description: as §4, §5, §6

Tea1 15A = experiment: Seedling injury rating, two-gene line Tea1 15A; assay type: in vivo, wheat
Description: as §3

[8] = system: susceptible durum line used as a check; experiment: Tolerance test, susceptible durum check; assay type: in vivo, T. turgidum ssp durum; conditions: 80 g/h of imazamox
[9] = system: double-haploid derived line of EM2+FS4; experiment: Seedling injury rating, two-gene line EM2+FS4; assay type: in vivo, wheat
Description: as §3

[10] = system: P00.45 (EM2 in a hexaploid background); experiment: Tolerance of doubled haploid line P00.45 (parental check in allelism studies); assay type: in vivo, T. aestivum ssp aestivum; conditions: 20 g/ha imazamox
Description: as §7, with “P00.45. […]” for “P00.45.”

[11] = system: F2 population of Crocus*2/EM2//CDC Tea1/3/2*AC Superb crossed by AC Avonlea; experiment: Herbicide selection in F2 of EM2 conversion x AC Avonlea; assay type: in vivo, T. aestivum x T. turgidum; conditions: at least a 20 g/h rate of imazamox
Description: as §2

[12] = system: BC1F2 plants of Crocus*2/EMIMI; experiment: Herbicide treatment of BC1F2 plants (Crocus x EMIMI); assay type: in vivo, T. aestivum x T. monococcum; conditions: 20 g/ha of imazamox, 24 plants treated
Description: as §7

[13] = higher rate, 600 grams per hectare
[14] = lower rate, 200 grams per hectare

**Q.** What does the source list for `COCc1cnc(C2=NC(C)(C(C)C)C(=O)N2)c(C(=O)O)c1` (centres unmarked) [imazamox]?
**A.** plant kill ([1]; 20 g/ha imazamox): killed; plant kill at the rate of the inheritance studies ([1]; 20 grams per hectare): sufficient to kill; tolerance of plants ([2]; F4:5 lines, 80 g/h of imazamox): all plants were tolerant; susceptible plants ([2]; F4:5 lines, 124 plants treated with 80 g/h): no susceptible plants were found; survival of plants ([2]; F4 plants, 80 g/h imazamox): All 53 F4 plants tested survived; plants killed ([3]; 200 and 600 grams per hectare): No plants were killed; seedling injury ([3]; 200 and 600 grams per hectare, line still segregating): some plants exhibiting injury at both rates; plants without injury ([3]; highest rate, 600 grams per hectare): approximately half the plants had no injury; plants killed (BW755 (FS4 only line)): No plants were killed; seedling injury (BW755 (FS4 only line)): injured at both rates; plants identified as tolerant [4]: Five; susceptibility of plants ([5]; 40 grams of imazamox, field): all plants dying; overall crop injury ([5]; 2000, non-herbicide tolerant check): virtually killed; injury of plants scored as tolerant [6]: sustained some injury; tolerance ([7]; 40 g/ha rate, field): excellent tolerance; overall crop injury ([7]; 1999, three times during the growing season): only slight injury; overall crop injury [7]; 2000: no injury; plants killed (Tea1 15A; 200 and 600 grams per hectare): No plants were killed; seedling injury (Tea1 15A; [13]): all were injured; seedling injury (Tea1 15A; [14]): No injury; plant kill [8]: killed; plants killed ([9]; 200 and 600 grams per hectare): No plants were killed; seedling injury [9, 13]: all were injured; seedling injury [9, 14]: No injury; tolerance [10]: tolerant; plants identified as resistant (no injury from herbicide application) [11]: 52/390; fully resistant plants [12]: 11; plants that showed some injury [12]: 7; susceptible plants [12]: 6
